Data reported in paper PMC6297231 (Nature Communications, 2018).

Key:
Assay in all cases: cells
A253 = details: Homo sapiens, A253, 6 h, read-out: AZD5991 6h EC50
Protocol: (§1) Cells were plated at 3000 cells/well in 384-well white plates in corresponding cell growth media. […] Caspase-3/7 activation was subsequently determined using a Caspase-Glo 3/7 Reagent (Promega) and viability was assayed using the CellTiter-Glo Reagent (Promega) as described in manufacturer’s instructions. Dose–response curves for caspase-3/7 activation and viability were plotted and analyzed (including EC50 and GI50 determination) using GraphPad Prism. Percentage of caspase activation was calculated against the maximum caspase activation value (100%) obtained with a proprietary cell kill control.

AMO1 = details: Homo sapiens, AMO1, 6 h, read-out: AZD5991 6h EC50
Protocol: as §1

Bjab = details: Homo sapiens, 6 h, read-out: AZD5991 6h EC50
Protocol: as §1

EOL1 = details: Homo sapiens, EOL1, 6 h, read-out: AZD5991 6h EC50
Protocol: as §1

H1048 = details: Homo sapiens, NCI-H1048, 6 h, read-out: AZD5991 6h EC50
Protocol: as §1

H1395 = details: Homo sapiens, NCI-H1395, 6 h, read-out: AZD5991 6h EC50
Protocol: as §1

H146 = details: Homo sapiens, NCI-H146, 6 h, read-out: AZD5991 6h EC50
Protocol: as §1

H1975 = details: Homo sapiens, NCI-H1975, 6 h, read-out: AZD5991 6h EC50
Protocol: as §1

H2122 = details: Homo sapiens, NCI-H2122, 6 h, read-out: AZD5991 6h EC50
Protocol: as §1

H345 = details: Homo sapiens, NCI-H345, 6 h, read-out: AZD5991 6h EC50
Protocol: as §1

H460 = details: Homo sapiens, NCI-H460, 6 h, read-out: AZD5991 6h EC50
Protocol: as §1

HCC1954 = details: Homo sapiens, HCC1954, 6 h, read-out: AZD5991 6h EC50
Protocol: as §1

JJN3 = details: Homo sapiens, JJN-3, 6 h, read-out: AZD5991 6h EC50
Protocol: as §1

JVM2 = details: Homo sapiens, JVM-2, 6 h, read-out: AZD5991 6h EC50
Protocol: as §1

KG1a = details: Homo sapiens, KG-1a, 6 h, read-out: AZD5991 6h EC50
Protocol: as §1

KMS12BM = details: Homo sapiens, KMS-12-BM, 6 h, read-out: AZD5991 6h EC50
Protocol: as §1

KMS12PE = details: Homo sapiens, KMS-12-PE, 6 h, read-out: AZD5991 6h EC50
Protocol: as §1

Karpas422 = details: Homo sapiens, KARPAS-422, 6 h, read-out: AZD5991 6h EC50
Protocol: as §1

Kasumi1 = details: Homo sapiens, Kasumi 1, 6 h, read-out: AZD5991 6h EC50
Protocol: as §1

MALME3M = details: Homo sapiens, Malme-3M, 6 h, read-out: AZD5991 6h EC50
Protocol: as §1

MEWO = details: Homo sapiens, 6 h, read-out: AZD5991 6h EC50
Protocol: as §1

MINO = details: Homo sapiens, 6 h, read-out: AZD5991 6h EC50
Protocol: as §1

MM1R = details: MM.1R, 6 h, read-out: AZD5991 6h EC50
Protocol: as §1

OCIAML2 = details: Homo sapiens, OCI-AML2, 6 h, read-out: AZD5991 6h EC50
Protocol: as §1

OCILY7 = details: Homo sapiens, OCI-Ly7, 6 h, read-out: AZD5991 6h EC50
Protocol: as §1

PL21 = details: PL-21, 6 h, read-out: AZD5991 6h EC50
Protocol: as §1

Raji = details: Homo sapiens, 6 h, read-out: AZD5991 6h EC50
Protocol: as §1

SBC5 = details: Homo sapiens, SBC-5, 6 h, read-out: AZD5991 6h EC50
Protocol: as §1

SKBR3 = details: Homo sapiens, SK-BR-3, 6 h, read-out: AZD5991 6h EC50
Protocol: as §1

SKMEL3 = details: Homo sapiens, SK-MEL3, 6 h, read-out: AZD5991 6h EC50
Protocol: as §1

SNU1197 = details: 6 h, read-out: AZD5991 6h EC50
Protocol: as §1

Sudhl10 = details: Homo sapiens, SU-DHL10, 6 h, read-out: AZD5991 6h EC50
Protocol: as §1

Toledo = details: Homo sapiens, 6 h, read-out: AZD5991 6h EC50
Protocol: as §1

U266B1 = details: 6 h, read-out: AZD5991 6h EC50
Protocol: as §1

U2932 = details: Homo sapiens, U2932, 6 h, read-out: AZD5991 6h EC50
Protocol: as §1

WSUDLCL2 = details: Homo sapiens, WSUDLCL2, 6 h, read-out: AZD5991 6h EC50
Protocol: as §1

For `Cc1c2c(nn1C)CSCc1cc(n(C)n1)CSc1cc(c3ccccc3c1)OCCCc1c(C(=O)O)n(C)c3c-2c(Cl)ccc13` (atropisomer, axis not shown; (Ra)) [(Ra)-7], the EC50 (A253) was over 30 µM, the EC50 (AMO1) was 90 nM and the EC50 (Bjab) was 47 nM. It also gave an EC50 (EOL1) of 13 nM, an EC50 (H1048) of over 30 µM and an EC50 (H1395) of 15.4 µM. It also gave an EC50 (H146) of over 30 µM, an EC50 (H1975) of over 30 µM and an EC50 (H2122) of 15.2 µM. It also gave an EC50 (H345) of over 30 µM, an EC50 (H460) of over 30 µM and an EC50 (HCC1954) of 682 nM. For the same compound, the EC50 (JJN3) was 223 nM, the EC50 (JVM2) was 1030 nM and the EC50 (KG1a) was 1420 nM. For the same compound, the EC50 (KMS12BM) was 56 nM, the EC50 (KMS12PE) was 383 nM and the EC50 (Karpas422) was 530 nM. For the same compound, the EC50 (Kasumi1) was 297 nM, the EC50 (MALME3M) was over 30 µM and the EC50 (MEWO) was over 30 µM. The EC50 (MINO) was 1290 nM, the EC50 (MM1R) was 120 nM and the EC50 (OCIAML2) was 472 nM. For the same compound, the EC50 (OCILY7) was 36 nM, the EC50 (PL21) was 409 nM and the EC50 (Raji) was 7.4 µM. The EC50 (SBC5) was 1120 nM, the EC50 (SKBR3) was over 30 µM and the EC50 (SKMEL3) was over 30 µM. It also gave an EC50 (SNU1197) of over 30 µM, an EC50 (Sudhl10) of 10 nM and an EC50 (Toledo) of 1260 nM. It also gave an EC50 (U266B1) of over 30 µM, an EC50 (U2932) of 24.2 µM and an EC50 (WSUDLCL2) of 159 nM.
